Key:
Type in all cases: cell-based
[1] = system: IGROV1-R10 ovarian cancer cells; assay: PARP and caspase 3 cleavage by western blot; set-up: key to PARP cleavage: +: a little band corresponding to the 85 kDa cleaved form of PARP is observable on the western blot; ++: a band corresponding to the 85 kDa cleaved form of PARP is clearly observable on the western blot; +++: PARP in nearly completely cleaved
Method: (§1) Exponentially growing cells were transfected by siRNA as described below, and after 48 h, cells were continuously exposed to (Het)aromatic oligosystems (10, 25 or 50 μM) dissolved in DMSO (<0.1% of total volume) for 4 to 24 supplementary hours.
(§2) Cells were seeded in 25 cm^2 flasks the day before to reach 30-50% confluency at the time of transfection. The transfection INTERFERin™ reagent (Polyplus Transfection, Strasbourg. France) was added to siRNA diluted in Opti-MEM® reduced serum medium (Invitrogen, Cergy-Pontoise, France) and complexes formation was allowed to proceed for 15 min at RT before being applied to cells. The final siRNA concentration in the flasks was 20 nM.
Cells were rinsed with ice-cold PBS, suspended in a lysis buffer [RIPA:NaCl 150 mM, Tris (pH 8) 50 mM, Triton X100 1%, PMSF 4 mM, EDTA 5 mM, NaF 10 mM, NaPPi 10 mM, Na3OV4 1 mM, aprotinin 0.5 μl/ml and 4.6 ml ultra pure water] and incubated on ice for 30 minutes. Lysates were collected after centrifugation (13200 g, 10 min, 4° C.) and protein concentrations were determined using the Bradford assay (Bio-Rad, Hercules, USA). 20 μg of protein were separated by SDS-PAGE on a 4-12% gradient polyacrylamide gel (Invitrogen, Cergy-Pontoise, France) and transferred to Hybond-PVDF membranes (Amersham, Orsay, France). After blocking non-specific binding sites for 1 hour at RT by 5% (w/v) non-fat dry milk in TBS with 0.1% (v/v) Tween20 (T-TBS), the membranes were incubated overnight at 4° C. with the following rabbit monoclonal antibody: PARP, caspase-3 and Bcl-xL, Bim (Cell Signaling Technology, Ozyme, Saint-Quentin-en-Yvelines, France), Mcl-1 (Santa Cruz, Le Perray-en-Yvelines, France), HSP-70, Noxa (Calbiochem, Fontenay-sous-Bois, France), (Cell Signalling) and Actin (Sigma-Aldrich, Saint-Quentin Fallavier, France). Membranes were then washed with T-TBS and incubated for 1 hour with the appropriate horseradish peroxidase-conjugated anti-rabbit or anti-mouse (Amersham, Orsay, France) secondary antibodies. Revelation was done using a luminescent Image Analyzer (GE Healthcare, Orsay, France).

[2] = system: IGROV1-R10 ovarian cancer cells; assay: Nuclear morphology after DAPI staining; set-up: key to Apoptotic nuclear features: +: a few condensed or fragmented nuclei are observable after DAPI staining; ++: numerous condensed or fragmented nuclei are observable after DAPI staining (20-50%); +++: most of the nuclei are condensed or fragmented
Method: as §1, §2
After treatment, both detached and adherent cells were pooled after trypsinization, applied to a polylysine-coated glass slide by cytocentrifugation and fixed with a solution of ethanol/chloroform/acetic acid (6:3:1). The preparations were then incubated for 15 min at room temperature with 1 μg/ml DAPI solution (Boehringer Mannheim-Roche, Mannheim, Germany), washed in distillated water, mounted under a coverslip in Mowiol (Calbiochem) and analyzed under a fluorescence microscope (BX51, Olympus, Rungis, France).
Cells were fixed with 2.5% glutaraldehyde in PBS buffer, included in agar, rinsed in Sorensen's buffer, post-fixed in osmium tetroxide 1% in Sorensen's buffer, deshydrated in ethanol and embedded in EPON resin. Ultrathin sections were cut and stained with uranyl acetate and lead citrate and examined using a JEOL1011 transmission electron microscope.

[3] = system: IGROV1-R10 ovarian cancer cells; assay: Annexin V/propidium iodide flow cytometry; details: IGROV1-R10, 10 nM siXL1 48 h then 25 μM Pyridoclax 24 h
Method: Adherent and floating cells were pooled, washed with 1×PBS and centrifuged at 200 g for 5 min before staining by Annexin V, propidium iodide or both, as recommended by the manufacturer (Roche Diagnostic, Indianapolis, USA). Briefly, 100 μl of Annexin V—Flit or propidium iodide or both were added on the cells pellet (10^6 cells) and incubated 15 minutes at room temperature in obscurity. 500 μl of sample buffer was then added on the suspensions that were thereafter analyzed using a Gallios flow cytometer (Beckman Coulter, Roissy, France) and cell cycle distribution was determined using Kaluza acquisition software (Beckman Coulter).

[4] = system: IGROV1-R10 chemoresistant ovarian cancer cells; assay: Real-time cellular activity by impedancemetry (xCELLigence); details: IGROV1-R10, 25 μM Pyridoclax + 5 μM ABT-737
Method: FIG. 4 represents the effect of the association of Pyridoclax with ABT-737 on chemoresistant ovarian cancer cells IGROV1-R10 (top) and SKOV3 (bottom). Cells were concomitantly (A, E) or sequentially (B) exposed to 25 μM Pyridoclax and 5 μM ABT-737, and cellular effects were assessed either longitudinally (A, B, E) or after 24 h (C, D, F). [A, B, E] real time cellular activity assessed by impedancmetry (xCELLigence technology), after concomitant exposure (A, E) or sequential exposure (B; 24 h Pyridoclax, then ABT-737). [C]: Cellular morphology and DNA content histograms after a 24 h concomitant exposure. [D and F]: PARP and caspase 3 cleavage after a 24 h concomitant exposure.
Compound-mediated cytotoxicity was monitored using Real-Time Cell Analyzer multi-plate (RTCA MP) Instrument, xCELLigence System (Roche Applied Science, Mannheim, Germany). This system monitors cellular events in real time measuring electrical impedance across interdigitated micro-electrodes integrated on the bottom of tissue culture E-plates View (Roche). […] Thus, this index reflects changes in cell viability as described by Ke et al. (2011, Methods Mol Biol 740, 33-43). […] Impedance was continuously measured until the end of the treatment. Standard deviations of well replicates were analyzed with the RTCA Software.

[5] = IGROV1-R10, Pyridoclax associated to siXL1

SMILES: Cc1cc(-c2ncc(-c3cccnc3)cc2/C=C/c2ccccc2)cnc1-c1cccnc1 [Pyridoclax, 5,6′-di(pyridin-3-yl)-5′-methyl-3-((E)-styryl)-2,3′-bipyridine]
- cleavage of PARP and caspase 3 [1, 5]: complete cleavage of PARP and caspase 3
- PARP cleavage ([1]; Molecule + Bcl-xL targeting siRNA): +++
- nuclear morphology (DAPI staining and electron microscopy) [2, 5]: nuclear condensations and fragmentations
- Apoptotic nuclear features ([2]; Molecule + Bcl-xL targeting siRNA, DAPI staining): +++
- fraction of annexin V positive cells [3]: 60%
- cellular activity (impedancemetry) [4]: drastically decreased
